Drawing on patent publication US5488149A, “Substituted amic acid derivatives” (Banyu Pharmaceutical Co., Ltd., priority 1993, dated 1996), this text covers IC50 for eight compounds.

The assay deals with T1, squalene synthase (Homo sapiens, UniProt P37268).
T1 construct: A microsome fraction was prepared from human-hepatoma(Hep G2) cells; endogenous in cells; host or cells: Hep G2 (human hepatoma) cells, washed microsome fraction
T1 sequence (P37268 1-417): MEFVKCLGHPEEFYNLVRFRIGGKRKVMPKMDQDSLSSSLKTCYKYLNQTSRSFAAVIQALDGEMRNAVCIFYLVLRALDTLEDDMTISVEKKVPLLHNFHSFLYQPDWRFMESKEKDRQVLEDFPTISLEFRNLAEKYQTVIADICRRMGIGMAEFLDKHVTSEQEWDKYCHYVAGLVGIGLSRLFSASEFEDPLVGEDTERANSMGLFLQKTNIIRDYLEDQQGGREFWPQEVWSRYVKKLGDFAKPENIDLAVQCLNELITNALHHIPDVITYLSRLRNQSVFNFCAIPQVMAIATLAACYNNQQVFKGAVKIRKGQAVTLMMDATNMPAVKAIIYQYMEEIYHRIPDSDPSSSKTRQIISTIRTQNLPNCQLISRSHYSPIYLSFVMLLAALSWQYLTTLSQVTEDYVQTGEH
The assay can be described thus: Inhibitory activities against squalene synthase. The conditions noted are these: microsome fraction from human hepatoma (Hep G2) cells; 10 μM [3H]-farnesyl pyrophosphate; pH 7.4; 37° C., 20 minutes; read-out: 50% inhibitory concentration against squalene synthase activity (IC50). The format is biochemical. How it is done: Inhibitory activities against squalene synthase (1) Preparation of a microsome fraction A microsome fraction was prepared from human-hepatoma(Hep G2) cells by the method of Shechter et al disclosed in J. Biol. Chem., 267, 8628 (1992). Namely, Hep G2 cells were homogenized in the presence of a 0.3M sucrose-1 mM DTT-1 mM EDTA-10 mM Hepes buffer solution (pH 7.4) and various protease inhibitors, and subjected to centrifugal separation at 2000×g for 5 minutes and 10000×g for 15 minutes. The obtained supernatant was further subjected to centrifugal separation at 105000×g for 60 minutes, whereupon the precipitated residue was obtained. This precipitated residue was suspended in the above buffer solution containing various protease inhibitors, and the suspension was further subjected to centrifugal separation at 105000×g for 30 minutes to wash the precipitated residue. This washing operation was repeated three times. The finally obtained precipitated residue was taken as a microsome fraction, which was suspended in the above buffer solution containing no such various protease inhibitors, and the suspension was used for measuring the enzyme activities. (2) Method for measuring squalene synthase activities The enzymatic reaction of the squalene synthase was conducted in accordance with the method of Shechter et al disclosed in J. Biol. Chem., 267, 8628 (1992). […] Biochem., 203, 310 (1992). […] 50% inhibitory concentration against squalene synthase activity
Turning to `C[C@@H](NC(=O)CC(CC(=O)O)C(=O)O)[C@H](Cc1ccc2ccccc2c1)c1ccc(-c2ccccc2)cc1` (relative stereo) [Example 32, N-{(1RS, 2RS)-2-(4-Biphenylyl)-1-methyl-3-(2-naphthyl)propyl}carbamoylmethylsuccinic acid], the IC50 came to 4.7 nM.

Consider `C[C@@H](NC(=O)CC(CC(=O)O)C(=O)O)[C@H](Cc1ccc(Cl)cc1)c1ccc(-c2ccccc2)c(F)c1` (relative stereo) [Example 35, N-{(1RS, 2RS)-3-(4-Chlorophenyl)-2-(2-fluoro-4-biphenylyl)-1-methylpropyl}carbamoylmethylsuccinic acid], for which the IC50 was determined as 5.4 nM.

Take `C[C@@H](NC(=O)CC(CC(=O)O)C(=O)O)[C@@H](/C=C/c1ccc2ccccc2c1)Cc1ccc(Cl)c(Cl)c1` (relative stereo) [Example 102, N-((1RS, 2RS, 3E)-2-(3,4-dichlorobenzyl)-1-methyl-4-(2-naphthyl)-3-butenyl)carbamoylmethylsuccinic acid]: the IC50 came out at 1.7 nM.

`CC(CC(=O)O)CC(=O)N[C@H](C)[C@@H](/C=C/c1ccc2ccccc2c1)Cc1ccc(Cl)c(Cl)c1` (relative stereo) [Example 112, 4-{(1RS, 2RS, 3E)-2-(3,4-dichlorobenzyl)-1-1-methyl-4-(2-naphthyl)-3-butenylcarbamoyl}-3-methylbutanoic acid]: the IC50 turned out to be 3.1 nM.

Consider `C[C@H](NC(=O)C[C@H](CC(=O)O)C(=O)O)[C@@H](Cc1ccc(Cl)cc1)c1ccc(-c2ccccc2)cc1` [Example 46 (2R-form), (2R)-2-[N-{(1S, 2S)-2-(4-biphenylyl)-3-(4-chlorophenyl)-1-methylpropyl} -carbamoylmethyl]succinic acid], for which the IC50 worked out at 3.2 nM.

For `C[C@@H]([C@@H](Cc1ccc(Cl)c(Cl)c1)c1ccc(-c2ccccc2)cc1)N(C)C(=O)C[C@@H](CC(=O)O)C(=O)O` [Example 49, (2S)-2-[N-{(1S, 2S)-2-(4-Biphenylyl)-3-(3, 4dichlorophenyl) -1-methylpropyl}-N-methylcarbamoylmethyl]succinic acid], the IC50 came out at 3 nM.

With `C[C@H](NC(=O)CC/C=C/C(=O)O)[C@@H](Cc1ccc(Cl)c(Cl)c1)c1ccc(-c2ccccc2)c(F)c1` [Example 70, (E)-5-[N-{(1S, 2S)-3-(3,4-Dichlorophenyl)-2-(2-fluoro-4-biphenylyl)-1-methylpropyl}carbamoyl]-2-pentenoic acid], the IC50 turned out to be 1.4 nM.

In the case of `C[C@H](NC(=O)C[C@@H](CC(=O)O)C(=O)O)[C@@H](Cc1ccc(Cl)c(Cl)c1)OC(=O)c1ccc2ccccc2c1` [Example 92, (2S)-2-[N-{(1S, 2R)-3-(3,4-dichlorophenyl)-1-methyl-2-(2-naphthoyloxy)propyl}carbamoylmethyl]succinic acid], the IC50 was found to be 0.5 nM.
